This is an account of results in US20250359578A1, “WATER-SOLUBLE CREATINE AGGLOMERATE” (Alzchem Trostberg GmbH, priority 2022, published 2025).

Holding throughout (type): physicochemical
The nature of data set [1]: Determination of the grain size distribution (laser diffraction, HELOS/KR). The protocol: 7. Determination of the Grain Size Distribution
The grain size distribution was determined using a laser diffraction method on a “HELOS/KR” grain size measuring device from Sympatec GmbH. The R6 measuring aperture was used, which covers a measuring range of 0.5 to 1750 μm. The sample was fed via a vibrating chute with 60% power and a dispersion pressure of 2.5 bar. The software version “WINDOX 5.1.2.0, LD” was used for evaluation. Setting the trigger conditions: Time base 100.00 ms, start at c.opt>=1.0%, validity c.opt from 1.0% to 14.0%, stop at 5.000s c.opt<=0.9% or 10.000s real time. The x10, x50 and x90 values were used to assess the agglomerate quality, represented as the distribution sum Q3 in a histogram of the grain size distribution.

Data set [2] in a line: Determination of the dissolution rate (mass of filter residue). The conditions noted are these: 1.75 g in 175 ml water at 23° C., stirred 10 seconds. The text has this:
The moist filter residue is dried. The mass of the filter residue serves as a measure of the dissolution rate; the lower the mass, the better the dissolution rate.

The nature of data set [3]: Determination of pourability (drainage funnel). Also noted: key: Solid trickles through the 2.5 mm outlet: Grade 1; Solid trickles through the 5 mm outlet: Grade 2; Solid trickles through the 8 mm outlet: Grade 3; Solid trickles through the 12 mm outlet: Grade 4; Solid trickles through the 18 mm outlet: Grade 5; Solid does not trickle through the 18 mm outlet: Grade 6. The conditions noted are these: grade by outlet diameter of test funnel, 50 mL sample; lower grade is better. The protocol:
2. Determination of Pourability (Drainage Funnel):
The test equipment consists of five test funnels with the same diameter (36 mm inner diameter) and 28 degree tilt, but with different outlet diameters (2.5 mm; 5 mm; 8 mm; 12 mm and 18 mm). A 50 mL sample of creatine or the creatine formulation is filled into the test funnel, whereby the outlet is closed from below so that no material can drain during filling. In the next step, the outlet is opened completely—without shaking the test funnel—so that the entire outlet cross-section is released. The evaluation parameter is the diameter at which the solid trickles through independently and without external influence.
The lower the grade, the better the pourability.

The nature of data set [4]: Determination of the bulk density (DIN ISO 697). The protocol: 6. Determination of the Bulk Density
The bulk density was determined according to the method DIN ISO 697 (1984-01) surfactants; detergents; determination of bulk density; method by measuring the mass of a given volume.
The higher the bulk density, the more advantageous the handling.

Data set [5] in a line: Determination of the angle of repose (DIN ISO 4324). The protocol: 3. Determination of the Angle of Repose
The angle of repose was determined according to the method DIN ISO 4324 (1983-12) Surfactants; powders and granules; determination of the angle of repose. The smaller the angle of repose, the better the flow properties.

A short description of data set [6]: Determination of flowability (Evolution Powder Tester). The conditions noted are these: compression, no time consolidation. The protocol:
4. Determination of Flowability
Flowability of solids (powders and agglomerates) is determined using the “Evolution Powder Tester” measuring device from PS Prozesstechnik GmbH, Basel, Switzerland. Flowability is shown in the dimensionless number [ffc]. The method used is determination by compression on the Evolution Powder Tester; no time consolidation is carried out. For this purpose, 25 mL of the solid is weighed into the measuring cell and placed in the measuring device. After starting the measurement, the solid is compressed in the measuring cell at a stamping speed of 15 mm per minute and a force (F1) of 10000 kPa for 30 seconds. The resulting solid compact in the measuring cell is then loaded again with a stamping speed of 10 mm per minute and slowly increasing force (F2) until the solid compact breaks. The ratio of the force (F1) for compression and the force (F2) for breaking the compact corresponds to the flowability [ffc] and is calculated using the formula: […]
The following assessment applies to the classification of flowability [ffc]: […]

Data set [7] in a line: Determination of dustiness (DustView II). The conditions noted are these: 30.0 g sample, maximum attenuation plus value at 30 seconds. The protocol:
5. Determination of Dustiness
The dustiness of solids (powders and agglomerates) is represented in the dimensionless dust number. The dust number is determined using the DustView II dust measuring device from Palas GmbH, Karlsruhe.
Thereby, 30.0 g of a sample is weighed and placed in the funnel on the flap. The measurement is then started by pressing a button on the control panel. The flap opens and the solid falls freely into the dust box. The impact of the solid material whirls up the dust particles. As a result, the light beam emitted by the laser is attenuated by the swirling dust and the attenuated light beam is detected at the receiver. The degree of attenuation (transmission signal) compared to the light beam emitted by the light source is a measure of the dustiness of the solid. A value of 100 means the maximum possible attenuation of the light beam and a value of 0 means no attenuation of the light beam. To determine the dust number, the value of the maximum attenuation of the light beam is added to the value at 30 seconds after the start of the measurement and output as the dust number.
The lower the dust number, the less dusty the solid is.

`CN(CC(=O)O)C(=N)N.O` [creatine monohydrate]: the “Grain size distribution ×50 value” in data set [1] (distribution sum Q3, listed as non-ground creatine monohydrate, monohydrate) amounted to 171 μm. The “Undissolved portion to 1.75 g” value in data set [2] was 632.9 mg.
With `CN(CC(=O)O)C(=N)N.O` [Example 6, creatine monohydrate], in data set [1] (distribution sum Q3), the “Grain size distribution ×10 value” is listed as 1.32 μm and the “Grain size distribution ×90 value” amounted to 45.8 μm. Moreover, in data set [1] (distribution sum Q3, monohydrate), the “Grain size distribution ×50 value” was found to be 13.0 μm. The same molecule gave a Pourability in data set [3] of 6. The molecule also showed a Bulk density in data set [4] of 270 g/L. This molecule returned an Angle of repose in data set [5] of 54 °. Further, in data set [6], the “Flowability [ffc]” value amounted to 1.9. In data set [7], the “Dustiness [dust number]” value came to 23.2.
